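Assay format: 96-well plates, 48-hour exposure. GI50 = concentration required for 50% inhibition of growth.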 The source made the active and inactive calls. No stated cut-off is given here; in the data, active = GI50 up to about 1.1 µM and inactive = higher.
Experiments:
Assay in all cases: NCI-60 cell line screen, 48 h
SN12C = system: SN12C
786-0 = system: 786-0
UACC-62 = system: UACC-62
HT-29 = system: HT-29
DU-145 = system: DU-145
SK-MEL-2 = system: SK-MEL-2
MDA-MB-435 = system: MDA-MB-435
TK-10 = system: TK-10
SK-OV-3 = system: SK-OV-3
T47D = system: T47D
ACHN = system: ACHN
PC-3 = system: PC-3
RPMI-8226 = system: RPMI-8226
HCT-15 = system: HCT-15
CAKI-1 = system: CAKI-1
NCI-H460 = system: NCI-H460
Malme-3M = system: Malme-3M
SNB-75 = system: SNB-75
NCI/ADR-RES = system: NCI/ADR-RES
UACC-257 = system: UACC-257
OVCAR-4 = system: OVCAR-4
OVCAR-5 = system: OVCAR-5
HOP-62 = system: HOP-62
HCC 2998 = system: HCC 2998
SK-MEL-28 = system: SK-MEL-28
M14 = system: M14
SF-268 = system: SF-268
UO-31 = system: UO-31
NCI-H522 = system: NCI-H522
EKVX = system: EKVX
HCT-116 = system: HCT-116
KM12 = system: KM12
HL-60 = system: HL-60
RXF 393 = system: RXF 393
U-251 = system: U-251
SW-620 = system: SW-620
SK-MEL-5 = system: SK-MEL-5
MCF7 = system: MCF7
BT-549 = system: BT-549
COLO 205 = system: COLO 205
Hs-578T = system: Hs-578T
OVCAR-3 = system: OVCAR-3
HOP-92 = system: HOP-92
SNB-19 = system: SNB-19
SR = system: SR
MDA-MB-231 = system: MDA-MB-231
SF-295 = system: SF-295
CCRF-CEM = system: CCRF-CEM
A498 = system: A498
NCI-H23 = system: NCI-H23
MOLT-4 = system: MOLT-4
SF-539 = system: SF-539
A549 = system: A549
K562 = system: K562
NCI-H226 = system: NCI-H226
OVCAR-8 = system: OVCAR-8
IGROV-1 = system: IGROV-1
LOX IMVI = system: LOX IMVI

Measured: GI50

O=C1c2ccccc2C(=O)c2c1nc1ccccc1c2-c1cncc(-c2c3c(nc4ccccc24)C(=O)c2ccccc2C3=O)c1
1.24 µM: HCT-15
active: RPMI-8226 0.361 µM | CCRF-CEM 0.562 µM | MOLT-4 0.418 µM | IGROV-1 0.0596 µM
inactive: SN12C 3.98 µM | 786-0 9.82 µM | UACC-62 5.65 µM | HT-29 8.49 µM | DU-145 4.09 µM | SK-MEL-2 8.45 µM | MDA-MB-435 1.83 µM | TK-10 37.3 µM | SK-OV-3 > 77.1 µM | T47D 2.33 µM | ACHN 4.08 µM | PC-3 2.15 µM | CAKI-1 9.84 µM | NCI-H460 2.43 µM | Malme-3M 11.9 µM | SNB-75 5.69 µM | NCI/ADR-RES 4.13 µM | UACC-257 8.63 µM | OVCAR-4 30.9 µM | OVCAR-5 50.2 µM | HOP-62 6.56 µM | HCC 2998 18.5 µM | SK-MEL-28 12.4 µM | M14 3.18 µM | SF-268 6.08 µM | UO-31 1.55 µM | NCI-H522 1.95 µM | EKVX 3.85 µM | HCT-116 4.17 µM | KM12 3.61 µM | HL-60 1.75 µM | RXF 393 12.1 µM | U-251 8 µM | SW-620 6.15 µM | SK-MEL-5 1.29 µM | MCF7 5.19 µM | BT-549 11.4 µM | COLO 205 2.85 µM | Hs-578T 3.69 µM | OVCAR-3 5.7 µM | HOP-92 4.32 µM | SNB-19 23.8 µM | SR 1.53 µM | MDA-MB-231 9.31 µM | SF-295 8.32 µM | A498 9.18 µM | NCI-H23 1.18 µM | SF-539 6.46 µM | A549 3.29 µM | K562 1.31 µM | NCI-H226 5.87 µM | OVCAR-8 1.52 µM | LOX IMVI 1.67 µM
